Laboratory results taken from ChEMBL document CHEMBL3044654, “Sensitivity of four isolates of Clonostachys rosea to pesticides used in the strawberry crop in Brazil” (2012).

Columns and labels:
Type in all cases: functional
Clonostachys rosea [1] = test: Toxicity against Bionectria ochroleuca assessed as inhibition of conidial germination at 0.003 to 0.020 ug/ml measured every 24 hr intervals over 192 hr
Clonostachys rosea [2] = test: Toxicity against Bionectria ochroleuca assessed as inhibition of mycelial growth at 0.003 to 0.020 ug/ml measured every 24 hr intervals over 192 hr
Clonostachys rosea [3] = test: Toxicity against Bionectria ochroleuca I62 assessed as inhibition of mycelial growth at 0.003 to 0.020 mg/ml measured every 24 hr intervals over 192 hr
Clonostachys rosea [4] = test: Toxicity against Bionectria ochroleuca I61 assessed as inhibition of mycelial growth at 0.003 to 0.020 mg/ml measured every 24 hr intervals over 192 hr
Clonostachys rosea [5] = test: Toxicity against Bionectria ochroleuca I60 assessed as inhibition of mycelial growth at 0.003 to 0.020 mg/ml measured every 24 hr intervals over 192 hr
Clonostachys rosea [6] = test: Toxicity against Bionectria ochroleuca I19 assessed as inhibition of mycelial growth at 0.003 to 0.020 mg/ml measured every 24 hr intervals over 192 hr
Clonostachys rosea [7] = test: Toxicity against Bionectria ochroleuca I60 assessed as inhibition of mycelial growth at 0.3 to 1.8 mg/ml measured every 24 hr intervals over 192 hr
Clonostachys rosea [8] = test: Toxicity against Bionectria ochroleuca I61 assessed as inhibition of mycelial growth at 0.3 to 1.8 mg/ml measured every 24 hr intervals over 192 hr
Clonostachys rosea [9] = test: Toxicity against Bionectria ochroleuca I19 assessed as inhibition of mycelial growth at 0.3 to 1.8 mg/ml measured every 24 hr intervals over 192 hr
Clonostachys rosea [10] = test: Toxicity against Bionectria ochroleuca assessed as inhibition of conidial germination at 0.3 to 1.8 mg/ml measured every 24 hr intervals over 192 hr
Clonostachys rosea [11] = test: Toxicity against Bionectria ochroleuca assessed as inhibition of mycelial growth at 0.3 to 1.8 mg/ml measured every 24 hr intervals over 192 hr
Clonostachys rosea [12] = test: Toxicity against Bionectria ochroleuca I62 assessed as inhibition of mycelial growth at 0.3 to 1.8 mg/ml measured every 24 hr intervals over 192 hr
Clonostachys rosea [13] = test: Toxicity against Bionectria ochroleuca assessed as inhibition of conidial germination at 0.048 to 0.292 ug/ml measured every 24 hr intervals over 192 hr
Clonostachys rosea [14] = test: Toxicity against Bionectria ochroleuca I19 assessed as inhibition of conidial germination at 0.048 to 0.292 mg/ml measured every 24 hr intervals over 192 hr
Clonostachys rosea [15] = test: Toxicity against Bionectria ochroleuca I60 assessed as inhibition of conidial germination at 0.048 to 0.292 mg/ml measured every 24 hr intervals over 192 hr
Clonostachys rosea [16] = test: Toxicity against Bionectria ochroleuca I61 assessed as inhibition of conidial germination at 0.048 to 0.292 mg/ml measured every 24 hr intervals over 192 hr
Clonostachys rosea [17] = test: Toxicity against Bionectria ochroleuca I61 assessed as inhibition of mycelial growth at 0.048 to 0.292 mg/ml measured every 24 hr intervals over 192 hr
Clonostachys rosea [18] = test: Toxicity against Bionectria ochroleuca I19 assessed as inhibition of mycelial growth at 0.048 to 0.292 mg/ml measured every 24 hr intervals over 192 hr
Clonostachys rosea [19] = test: Toxicity against Bionectria ochroleuca I60 assessed as inhibition of mycelial growth at 0.048 to 0.292 mg/ml measured every 24 hr intervals over 192 hr
Clonostachys rosea [20] = test: Toxicity against Bionectria ochroleuca assessed as inhibition of mycelial growth at 0.048 to 0.292 ug/ml measured every 24 hr intervals over 192 hr
Clonostachys rosea [21] = test: Toxicity against Bionectria ochroleuca I62 assessed as inhibition of mycelial growth at 0.048 to 0.292 mg/ml measured every 24 hr intervals over 192 hr
Clonostachys rosea [22] = test: Toxicity against Bionectria ochroleuca I62 assessed as inhibition of conidial germination at 0.048 to 0.292 mg/ml measured every 24 hr intervals over 192 hr
Clonostachys rosea [23] = test: Toxicity against Bionectria ochroleuca assessed as inhibition of conidial germination at 0.001 to 0.009 ug/ml
Clonostachys rosea [24] = test: Toxicity against Bionectria ochroleuca assessed as inhibition of mycelial growth at 0.001 to 0.009 ug/ml
Clonostachys rosea [25] = test: Toxicity against Bionectria ochroleuca assessed as inhibition of conidial germination at 0.005 to 0.033 ug/ml
Clonostachys rosea [26] = test: Toxicity against Bionectria ochroleuca assessed as inhibition of mycelial growth at 0.005 to 0.033 ug/ml
Clonostachys rosea [27] = test: Toxicity against Bionectria ochroleuca assessed as inhibition of mycelial growth at 0.9 to 1.13 mg/ml measured every 24 hr intervals over 192 hr
Clonostachys rosea [28] = test: Toxicity against Bionectria ochroleuca assessed as inhibition of conidial germination at 0.9 to 1.13 mg/ml measured every 24 hr intervals over 192 hr
Clonostachys rosea [29] = test: Toxicity against Bionectria ochroleuca I62 assessed as inhibition of mycelial growth at 0.25 to 1.50 mg/ml measured every 24 hr intervals over 192 hr
Clonostachys rosea [30] = test: Toxicity against Bionectria ochroleuca I19 assessed as inhibition of mycelial growth at 0.25 to 1.50 mg/ml measured every 24 hr intervals over 192 hr
Clonostachys rosea [31] = test: Toxicity against Bionectria ochroleuca I61 assessed as inhibition of conidial germination at 0.25 to 1.50 mg/ml measured every 24 hr intervals over 192 hr
Clonostachys rosea [32] = test: Toxicity against Bionectria ochroleuca assessed as inhibition of conidial germination at 0.25 to 1.50 mg/ml measured every 24 hr intervals over 192 hr
Clonostachys rosea [33] = test: Toxicity against Bionectria ochroleuca I61 assessed as inhibition of mycelial growth at 0.25 to 1.50 mg/ml measured every 24 hr intervals over 192 hr
Clonostachys rosea [34] = test: Toxicity against Bionectria ochroleuca assessed as inhibition of mycelial growth at 0.25 to 1.50 mg/ml measured every 24 hr intervals over 192 hr
Clonostachys rosea [35] = test: Toxicity against Bionectria ochroleuca I62 assessed as inhibition of conidial germination at 0.25 to 1.50 mg/ml measured every 24 hr intervals over 192 hr
Clonostachys rosea [36] = test: Toxicity against Bionectria ochroleuca I60 assessed as inhibition of mycelial growth at 0.25 to 1.50 mg/ml measured every 24 hr intervals over 192 hr
Clonostachys rosea [37] = test: Toxicity against Bionectria ochroleuca assessed as inhibition of mycelial growth at 0.12 to 0.75 mg/ml measured every 24 hr intervals over 192 hr
Clonostachys rosea [38] = test: Toxicity against Bionectria ochroleuca assessed as inhibition of conidial germination at 0.12 to 0.75 mg/ml measured every 24 hr intervals over 192 hr
Clonostachys rosea [39] = test: Toxicity against Bionectria ochroleuca assessed as inhibition of mycelial growth at 0.011 to 0.066 mg/ml
Clonostachys rosea [40] = test: Toxicity against Bionectria ochroleuca assessed as inhibition of conidial germination at 0.011 to 0.066 mg/ml
Clonostachys rosea [41] = test: Toxicity against Bionectria ochroleuca I62 assessed as inhibition of mycelial growth at 0.006 to 0.037 mg/ml measured every 24 hr intervals over 192 hr
Clonostachys rosea [42] = test: Toxicity against Bionectria ochroleuca I61 assessed as inhibition of mycelial growth at 0.006 to 0.037 mg/ml measured every 24 hr intervals over 192 hr
Clonostachys rosea [43] = test: Toxicity against Bionectria ochroleuca assessed as inhibition of conidial germination at 0.006 to 0.037 ug/ml measured every 24 hr intervals over 192 hr
Clonostachys rosea [44] = test: Toxicity against Bionectria ochroleuca I60 assessed as inhibition of mycelial growth at 0.006 to 0.037 mg/ml measured every 24 hr intervals over 192 hr
Clonostachys rosea [45] = test: Toxicity against Bionectria ochroleuca assessed as inhibition of mycelial growth at 0.006 to 0.037 ug/ml measured every 24 hr intervals over 192 hr
Clonostachys rosea [46] = test: Toxicity against Bionectria ochroleuca I19 assessed as inhibition of mycelial growth at 0.006 to 0.037 mg/ml measured every 24 hr intervals over 192 hr
Clonostachys rosea [47] = test: Toxicity against Bionectria ochroleuca I62 assessed as inhibition of conidial germination at 0.12 to 0.75 mg/ml measured every 24 hr intervals over 192 hr
Clonostachys rosea [48] = test: Toxicity against Bionectria ochroleuca I19 assessed as inhibition of conidial germination at 0.12 to 0.75 mg/ml measured every 24 hr intervals over 192 hr
Clonostachys rosea [49] = test: Toxicity against Bionectria ochroleuca I61 assessed as inhibition of conidial germination at 0.12 to 0.75 mg/ml measured every 24 hr intervals over 192 hr
Clonostachys rosea [50] = test: Toxicity against Bionectria ochroleuca I60 assessed as inhibition of conidial germination at 0.12 to 0.75 mg/ml measured every 24 hr intervals over 192 hr
Clonostachys rosea [51] = test: Toxicity against Bionectria ochroleuca assessed as inhibition of conidial germination at 0.009 to 0.055 ug/ml
Clonostachys rosea [52] = test: Toxicity against Bionectria ochroleuca assessed as inhibition of mycelial growth at 0.009 to 0.055 ug/ml

CC[C@H](C)[C@H]1O[C@]2(C=C[C@@H]1C)C[C@@H]1C[C@@H](C/C=C(\C)[C@@H](O[C@H]3C[C@H](OC)[C@@H](O[C@H]4C[C@H](OC)[C@@H](O)[C@H](C)O4)[C@H](C)O3)[C@@H](C)/C=C/C=C3\CO[C@@H]4[C@H](O)C(C)=C[C@@H](C(=O)O1)[C@]34O)O2.CO[C@H]1C[C@H](O[C@H]2[C@H](C)O[C@@H](O[C@@H]3/C(C)=C/C[C@@H]4C[C@@H](C[C@]5(C=C[C@H](C)[C@@H](C(C)C)O5)O4)OC(=O)[C@@H]4C=C(C)[C@@H](O)[C@H]5OC/C(=C\C=C\[C@@H]3C)[C@]54O)C[C@@H]2OC)O[C@@H](C)[C@@H]1O [ABAMECTIN]
inhibition (INH) (Clonostachys rosea [1]): 1%
growth inhibition (GI) (Clonostachys rosea [2]): 0.5%
growth inhibition (GI) (Clonostachys rosea [3]): 9.64%
growth inhibition (GI) (Clonostachys rosea [4]): 9.79%
growth inhibition (GI) (Clonostachys rosea [5]): 6.51%
growth inhibition (GI) (Clonostachys rosea [6]): 5.79%

O=C1C2CC=CCC2C(=O)N1SC(Cl)(Cl)Cl (centres undefined) [CAPTAN]
growth inhibition (GI) (Clonostachys rosea [7]): 82.2%
growth inhibition (GI) (Clonostachys rosea [8]): 81.8%
growth inhibition (GI) (Clonostachys rosea [9]): 81.8%
inhibition (INH) (Clonostachys rosea [10]): 61%
growth inhibition (GI) (Clonostachys rosea [11]): 75%
growth inhibition (GI) (Clonostachys rosea [12]): 86.2%

CC1(C)C(C(=O)OC(C#N)c2cccc(Oc3ccccc3)c2)C1(C)C (centres undefined) [FENPROPATHRIN]
inhibition (INH) (Clonostachys rosea [13]): 6%
inhibition (INH) (Clonostachys rosea [14]): 12.7%
inhibition (INH) (Clonostachys rosea [15]): 10.1%
inhibition (INH) (Clonostachys rosea [16]): 10.7%
growth inhibition (GI) (Clonostachys rosea [17]): 7.16%
growth inhibition (GI) (Clonostachys rosea [18]): 8.18%
growth inhibition (GI) (Clonostachys rosea [19]): 3.93%
growth inhibition (GI) (Clonostachys rosea [20]): 1%
growth inhibition (GI) (Clonostachys rosea [21]): 10.77%
inhibition (INH) (Clonostachys rosea [22]): 9.9%

CCCCOC(=O)[C@@H](C)Oc1ccc(Oc2ccc(C(F)(F)F)cn2)cc1 [FLUAZIFOP-P-BUTYL]
inhibition (INH) (Clonostachys rosea [23]): 2.2%
growth inhibition (GI) (Clonostachys rosea [24]): 3.6%

O=C(O)CNCP(=O)(O)O [GLYPHOSATE]
inhibition (INH) (Clonostachys rosea [25]): 2.2%
growth inhibition (GI) (Clonostachys rosea [26]): 3.6%

CC(C)NC(=O)N1CC(=O)N(c2cc(Cl)cc(Cl)c2)C1=O [IPRODIONE]
growth inhibition (GI) (Clonostachys rosea [27]): 79%
inhibition (INH) (Clonostachys rosea [28]): 55%

CCOC(=O)CC(SP(=S)(OC)OC)C(=O)OCC (centres undefined) [MALATHION]
growth inhibition (GI) (Clonostachys rosea [29]): 29.32%
growth inhibition (GI) (Clonostachys rosea [30]): 36.87%
inhibition (INH) (Clonostachys rosea [31]): 12.7%
inhibition (INH) (Clonostachys rosea [32]): 10%
growth inhibition (GI) (Clonostachys rosea [33]): 32.67%
growth inhibition (GI) (Clonostachys rosea [34]): 22%
inhibition (INH) (Clonostachys rosea [35]): 14.9%
growth inhibition (GI) (Clonostachys rosea [36]): 34.59%

CC12CC1(C)C(=O)N(c1cc(Cl)cc(Cl)c1)C2=O (centres undefined) [PROCYMIDONE]
growth inhibition (GI) (Clonostachys rosea [37]): 66%
inhibition (INH) (Clonostachys rosea [38]): 59%

CCc1cccc(C)c1N(C(=O)CCl)[C@@H](C)COC [S-METOLACHLOR]
growth inhibition (GI) (Clonostachys rosea [39]): 3.6%
inhibition (INH) (Clonostachys rosea [40]): 2.2%

CN1COCN(Cc2cnc(Cl)s2)/C1=N\[N+](=O)[O-] [THIAMETHOXAM]
growth inhibition (GI) (Clonostachys rosea [41]): 1.82%
growth inhibition (GI) (Clonostachys rosea [42]): 0.51%
inhibition (INH) (Clonostachys rosea [43]): 1%
growth inhibition (GI) (Clonostachys rosea [44]): 2.65%
growth inhibition (GI) (Clonostachys rosea [45]): 0.1%
growth inhibition (GI) (Clonostachys rosea [46]): 0.36%

COC(=O)NC(=S)Nc1ccccc1NC(=S)NC(=O)OC [THIOPHANATE METHYL]
inhibition (INH) (Clonostachys rosea [47]): 69.3%
inhibition (INH) (Clonostachys rosea [48]): 40.8%
inhibition (INH) (Clonostachys rosea [49]): 39.4%
growth inhibition (GI) (Clonostachys rosea [37]): 90%
inhibition (INH) (Clonostachys rosea [50]): 37.4%
inhibition (INH) (Clonostachys rosea [38]): 31%

CCCN(CCC)c1c([N+](=O)[O-])cc(C(F)(F)F)cc1[N+](=O)[O-] [TRIFLURALIN]
inhibition (INH) (Clonostachys rosea [51]): 2.2%
growth inhibition (GI) (Clonostachys rosea [52]): 3.6%
